Experimental data taken from patent publication US10793557B2, “Sting agonist compounds” (Merck Sharp & Dohme Corp., priority 2018, dated 2020).

What was measured:
full-length WT STING = molecular target: T1, full-length WT STING (Homo sapiens, UniProt Q86WV6, H232R); experiment: 3H-cGAMP filtration binding assay (WT STING); settings: competition with tritiated cGAMP, WT STING membrane
T1 construct: AviTag (after gg linker) (C); HRV3C cleavage site (after gs linker) (C); HIS8 (C); made in house; host or cells: Trichoplusia ni (Hi-Five) insect cells infected with baculovirus (virus generated and amplified in Sf21 cells); used as a washed membrane preparation
T1 sequence (Q86WV6 with tags, fused parts or gaps H232R): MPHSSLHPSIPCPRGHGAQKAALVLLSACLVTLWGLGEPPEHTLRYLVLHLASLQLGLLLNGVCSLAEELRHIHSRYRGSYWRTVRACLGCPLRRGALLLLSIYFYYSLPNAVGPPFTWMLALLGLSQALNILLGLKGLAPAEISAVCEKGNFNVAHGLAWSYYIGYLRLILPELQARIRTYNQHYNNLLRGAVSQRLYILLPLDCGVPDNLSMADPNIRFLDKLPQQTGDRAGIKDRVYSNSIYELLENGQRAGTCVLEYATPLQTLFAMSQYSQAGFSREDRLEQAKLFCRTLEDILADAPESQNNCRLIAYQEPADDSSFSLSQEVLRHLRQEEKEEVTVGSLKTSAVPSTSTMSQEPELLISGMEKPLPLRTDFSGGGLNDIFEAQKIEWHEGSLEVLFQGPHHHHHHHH
Outline: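 EC50 values come from 4-parameter fits of remaining filter-bound tritium versus log concentration (10-point, 1:3 dilution). Insect-cell membranes carrying full-length WT STING were incubated 60 min at RT with compound and tritiated cGAMP (16 nM working stock) before filtration.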

full-length HAQ STING = molecular target: T2, full-length HAQ STING (Homo sapiens, UniProt Q86WV6, G230A/H232R/R293Q/R71H); experiment: 3H-cGAMP filtration binding assay (HAQ STING); settings: competition with tritiated cGAMP, HAQ STING membrane
T2 construct: AviTag (after GG linker) (C); HRV3C cleavage site (after GS linker) (C); HIS8 (C); made in house; host or cells: Trichoplusia ni (Hi-Five) insect cells infected with baculovirus (virus generated and amplified in Sf21 cells); used as a washed membrane preparation
T2 sequence (Q86WV6 with tags, fused parts or gaps R71H/G230A/H232R/R293Q): as the sequence (Q86WV6 with tags, fused parts or gaps H232R) above, with R71H, G230A, R293Q counted along it
Outline: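 Hi-Five (T. ni) membranes overexpressing the STING variant (2.2 ug/ml working) preincubated with compound 60 min at RT in PBS, then [3H]cGAMP (8 nM working stock) added for 60 min at RT. Bound radioactivity captured on GF/B filters and counted by scintillation; EC50 from 4-parameter fit of control-normalized activity.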

[1] = test system: secretion of interferon-beta from THP1 cells; experiment: IFN-β secretion in THP1 cell culture (5 h); format: cell-based; settings: Homo sapiens, THP-1, 5 h, 30 uM cGAMP = 100%; for activation at 30 µM: compound at 30 μM, read-out: % Effect at 30 μM relative to 2′3′-cGAMP
Outline: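 IFN-β in supernatant measured by AlphaLISA after a 5 h, 37 °C incubation of THP1 cells with compound (10 concentrations, 30000 down to 1.5 nM, 0.3% DMSO) in low-serum RPMI. Values scaled between DMSO and 30 uM cGAMP controls; 4-parameter curve fit yields EC50.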

Row | EC50 (full-length WT STING) [nM] | EC50 (full-length HAQ STING) [nM] | Structure (SMILES) | activation at 30 µM [1] [%] | activation at 3 µM ([1]; compound at 3 uM, read-out: % Effect relative to 2′3′-cGAMP (@ 3 uM)) [%]
1 | 2 | 2 | COc1cc2sc(C(=O)CCC(=O)O)cc2c(F)c1OCCCOc1c(OC)cc2sc(C(=O)CCC(=O)O)cc2c1F [Example 62, 4,4′-((propane-1,3-diylbis(oxy))bis(4-fluoro-6-methoxybenzo[b]thiophene-5,2-diyl))bis(4-oxobutanoic acid)] | 106 | –
2 | 1 | 1 | COc1cc2sc(C(=O)C[C@H](C)C(=O)O)cc2c(F)c1CCCOc1c(OC)cc2sc(C(=O)CCC(=O)O)cc2c1F [Example 163, (S)-4-(5-(3-((2-(3-carboxypropanoyl)-4-fluoro-6-methoxybenzo[b]thiophen-5-yl)oxy)propyl)-4-fluoro-6-methoxybenzo[b]thiophen-2-yl)-2-methyl-4-oxobutanoic acid] | 135 | –
3 | 12 | 6 | COc1cc2sc(C(=O)C[C@H](C)C(=O)O)cc2cc1CCOc1cc2cc(C(=O)C[C@H](C)C(=O)O)sc2cc1OC [Example 42, (S)-4-(5-(2-(2-((S)-3-carboxybutanoyl)-6-methoxybenzo[b]thiophen-5-yl)ethoxy)-6-methoxybenzo[b]thiophen-2-yl)-2-methyl-4-oxobutanoic acid] | 67 | –
4 | 14 | 7 | COc1cc2sc(C(=O)C[C@H](C)C(=O)O)cc2cc1CCCc1cc2cc(C(=O)C[C@H](C)C(=O)O)sc2cc1OC [Example 2, (2S,2′S)-4,4′-[propane-1,3-diylbis(6-methoxy-1-benzothiene-5,2-diyl)]bis(2-methyl-4-oxobutanoic acid)] | 192 | –
5 | 33 | 6 | COc1cc2sc(C(=O)CCC(=O)O)cc2nc1OCCCc1ccc2sc(C(=O)CCC(=O)O)cc2c1 [Example 4, 4-(5-(3-((2-(3-carboxypropanoyl)-6-methoxythieno [3,2-b]pyridin-5-yl)oxy)propyl)benzo[b]thiophen-2-yl)-4-oxobutanoic acid] | 93 | –
6 | 381 | 84 | COc1cc2sc(C(=O)CCC(=O)O)cc2cc1CCCOc1cc2nc(C(=O)CCC(=O)O)sc2cc1OC [Example 5, 4-(5-(3-(2-(3-carboxypropanoyl)-6-methoxybenzo [b]thiophen-5-yl)propoxy)-6-methoxybenzo[d]thiazol-2-yl)-4-oxobutanoic acid] | 96 | –
7 | 244 | 35 | COc1cc2sc(C(=O)C[C@@H](C)C(=O)O)cc2cc1CCCOc1c(OC)cc2sc(C(=O)C[C@@H](C)C(=O)O)cc2c1F [Example 108, (R)-4-(5-(3-((2-((R)-3-carboxybutanoyl)-4-fluoro-6-methoxybenzo[b]thiophen-5-yl)oxy)propyl)-6-methoxybenzo[b]thiophen-2-yl)-2-methyl-4-oxobutanoic acid] | 86 | –

More lines, now with the values behind:

Row | Structure (SMILES) | EC50 (full-length WT STING) [nM] | EC50 (full-length HAQ STING) [nM] | activation at 30 µM [1] [%] | activation at 3 µM ([1]; compound at 3 uM, read-out: % Effect relative to 2′3′-cGAMP (@ 3 uM)) [%]
8 | COc1cc2sc(C(=O)C[C@H](C)C(=O)O)cc2c(F)c1OCC(C)COc1c(OC)cc2sc(C(=O)C[C@H](C)C(=O)O)cc2c1F [Example 142, (2S,2′S)-4,4′-(((2-methylpropane-1,3-diyl)bis(oxy))bis(4-fluoro-6-methoxybenzo[b]thiophene-5,2-diyl))bis(2-methyl-4-oxobutanoic acid)] | 1 | 1 | 81 | –
9 | COc1cc2sc(C(=O)C[C@H](C)C(=O)O)cc2c(Cl)c1OCCCOc1c(OC)cc2sc(C(=O)C[C@H](C)C(=O)O)cc2c1Br [Example 133, (S)-4-(5-(3-((4-bromo-2-((S)-3-carboxybutanoyl)-6-methoxybenzo[b]thiophen-5-yl)oxy)propoxy)-4-chloro-6-methoxybenzo[b]thiophen-2-yl)-2-methyl-4-oxobutanoic acid] | 147 | 15 | 80 | –
10 | COc1cc2sc(CC[C@H](C)C(=O)O)cc2c(F)c1OCCCOc1cc2cc(C(=O)C[C@H](C)C(=O)O)sc2cc1O [Example 181, (S)-4-(5-(3-((2-((S)-3-carboxybutyl)-4-fluoro-6-methoxybenzo[b]thiophen-5-yl)oxy)propoxy)-6-hydroxybenzo[b]thiophen-2-yl)-2-methyl-4-oxobutanoic acid] | 177 | 5 | – | 104
11 | COc1cc2sc(C(=O)C[C@H](C)C(=O)O)cc2c(F)c1OCCCCOc1c(OC)cc2sc(C(=O)C[C@H](C)C(=O)O)cc2c1Cl [Example 130, (S)-4-(5-(4-((2-((S)-3-carboxybutanoyl)-4-chloro-6-methoxybenzo[b]thiophen-5-yl)oxy)butoxy)-4-fluoro-6-methoxybenzo[b]thiophen-2-yl)-2-methyl-4-oxobutanoic acid] | 25 | 3 | 61 | –
12 | COc1cc2sc(C(=O)C[C@H](C)C(=O)O)cc2cc1OCCCOc1c(OC)cc2sc(C(=O)[C@@H]3CC[C@H]3C(=O)O)cc2c1F [Example 170, trans-2-(5-(3-((2-((S)-3-carboxybutanoyl)-6-methoxybenzo[b]thiophen-5-yl)oxy)propoxy)-4-fluoro-6-methoxybenzo[b]thiophene-2-carbonyl)cyclobutanecarboxylic acid] | 3 | 1 | 86 | –
13 | COc1cc2sc(C(=O)C[C@H](C)C(=O)O)cc2cc1OCCCCOc1cc2sc(C(=O)C[C@H](C)C(=O)O)cc2cc1OC [Example 94, (S)-4-(5-(4-((2-((S)-3-carboxybutanoyl)-5-methoxybenzo[b]thiophen-6-yl)oxy)butoxy)-6-methoxybenzo[b]thiophen-2-yl)-2-methyl-4-oxobutanoic acid] | 131 | 6 | 100 | –
14 | COc1cc2sc(C(=O)C[C@H](C)C(=O)O)cc2cc1OCCCOc1c(OC)cc2sc(CC[C@H](C)C(=O)O)cc2c1F [Example 169, (S)-4-(5-(3-((2-((S)-3-carboxybutyl)-4-fluoro-6-methoxybenzo[b]thiophen-5-yl)oxy)propoxy)-6-methoxybenzo[b]thiophen-2-yl)-2-methyl-4-oxobutanoic acid] | 18 | 1 | 64 | –
15 | COc1cc2sc(C(=O)C[C@H](C)C(=O)O)cc2cc1CCCOc1c(OC)cc2sc(C(=O)[C@@H]3CCC3C(=O)O)cc2c1F (stereo partly drawn) [Example 113, trans-2-(5-(3-(2-((S)-3-carboxybutanoyl)-6-methoxybenzo[b]thiophen-5-yl)propoxy)-4-fluoro-6-methoxybenzo[b]thiophene-2-carbonyl)cyclobutane carboxylic acid] | 23 | 2 | 93 | –
16 | COc1cc2sc(C(=O)C[C@H](C)C(=O)O)cc2c(Cl)c1OCCCOc1c(OC)cc2sc(C(=O)C[C@H](C)C(=O)O)cc2c1Cl [Example 132, (2S,2′S)-4,4′-(5,5′-(propane-1,3-diylbis(oxy))bis(4-chloro-6-methoxybenzo[b]thiophene-5,2-diyl))bis(2-methyl-4-oxobutanoic acid)] | 10 | 3 | 131 | –
17 | COc1cc2sc(C(=O)C[C@H](C)C(=O)O)cc2cc1OCCCOc1cc2cc(C(=O)[C@H]3C[C@@H]3C(=O)O)sc2cc1OC (racemic) [Example 68, rac-(1R,2R)-2-(5-(3-((2-((R)-3-carboxybutanoyl)-6-methoxybenzo[b]thiophen-5-yl)oxy)propoxy)-6-methoxybenzo[b]thiophene-2-carbonyl)cyclopropane-1-carboxylic acid] | 443 | 50 | 24 | –
